How the values were obtained:
MT4 [1] = experiment: Inhibitory activity of compound was determined against HIV-1 replication in MT-4 cells; […]; assay type: functional, cell-based; conditions: Homo sapiens
MT4 [2] = experiment: Inhibitory activity against HIV-1 replication in MT-4 cells; Not cytotoxic; assay type: functional, cell-based; conditions: Homo sapiens
MT4 [3] = experiment: Inhibitory activity against HIV-1 replication in MT-4 cells; not cytotoxic; assay type: functional, cell-based; conditions: Homo sapiens
MT4 [4] = experiment: Compound was tested for its […] in MT-4 cells; assay type: functional; conditions: Homo sapiens, read-out: CD50 (the source's name)
MT4 [5] = experiment: Inhibitory activity of compound was determined against HIV-1 replication in MT-4 cells; assay type: functional, cell-based; conditions: Homo sapiens
MT4 [6] = experiment: Inhibitory activity of compound was determined against HIV-1 replication in MT-4 cells; weak activity; assay type: functional, cell-based; conditions: Homo sapiens

Nc1nc(O)c2ncn([C@H]3CO[C@H](CP(=O)(O)O)O3)c2n1
EC50 (MT4 [1]): > 332 µM
IC50 (MT4 [2]): > 332 µM

Cc1cn([C@H]2CO[C@H](CP(=O)(O)O)O2)c(=O)[nH]c1=O
EC50 (MT4 [1]): > 332 µM
IC50 (MT4 [3]): > 332 µM

Nc1ccn([C@H]2CO[C@H](CP(=O)(O)O)O2)c(=O)n1
EC50 (MT4 [1]): > 332 µM
IC50 (MT4 [3]): > 332 µM

Nc1nc(O)c2ncn([C@H]3CO[C@@H](CP(=O)(O)O)O3)c2n1
EC50 (MT4 [1]): > 332 µM
IC50 (MT4 [3]): > 332 µM

Cc1cn([C@H]2CO[C@@H](CP(=O)(O)O)O2)c(=O)[nH]c1=O
EC50 (MT4 [1]): > 332 µM
IC50 (MT4 [3]): > 332 µM

Nc1ccn([C@H]2CO[C@@H](CP(=O)(O)O)O2)c(=O)n1
EC50 (MT4 [1]): 312 µM
IC50 (MT4 [3]): > 332 µM

Cc1cn(C2COC(CO[PH](=O)O)O2)c(=O)[nH]c1=O (stereo not given)
CC50 (MT4 [4]): 342 µM
EC50 (MT4 [5]): 51 µM

CC(=O)Nc1ccn(C2COC(CP(=O)(O)O)O2)c(=O)n1 (stereo not given)
EC50 (MT4 [6]): 312 µM

— ChEMBL document CHEMBL1151090, “Synthesis of racemic 2-phosphonomethyl-1,3-dioxolane nucleoside analogues as potential antiviral agents” (Bioorg Med Chem Lett, 1995)
